We go through 17 compounds from patent publication US7795255B2, “Rigidified compounds for modulating heparanase activity” (InSight Biopharmaceuticals Ltd., priority 2005, dated 2010).

As usually defined, the IC50 is the concentration that gives 50% inhibition.

The target in test [1] is T1, recombinant human pro-heparanase (H60) (Homo sapiens, UniProt Q9Y251).
T1 construct: Heparanase maturation involves the removal of the signal peptide, transforming the 65 kDa pre-pro-heparanase into a 60 kDa pro-heparanase; made in house
T1 sequence (Q9Y251 36-543): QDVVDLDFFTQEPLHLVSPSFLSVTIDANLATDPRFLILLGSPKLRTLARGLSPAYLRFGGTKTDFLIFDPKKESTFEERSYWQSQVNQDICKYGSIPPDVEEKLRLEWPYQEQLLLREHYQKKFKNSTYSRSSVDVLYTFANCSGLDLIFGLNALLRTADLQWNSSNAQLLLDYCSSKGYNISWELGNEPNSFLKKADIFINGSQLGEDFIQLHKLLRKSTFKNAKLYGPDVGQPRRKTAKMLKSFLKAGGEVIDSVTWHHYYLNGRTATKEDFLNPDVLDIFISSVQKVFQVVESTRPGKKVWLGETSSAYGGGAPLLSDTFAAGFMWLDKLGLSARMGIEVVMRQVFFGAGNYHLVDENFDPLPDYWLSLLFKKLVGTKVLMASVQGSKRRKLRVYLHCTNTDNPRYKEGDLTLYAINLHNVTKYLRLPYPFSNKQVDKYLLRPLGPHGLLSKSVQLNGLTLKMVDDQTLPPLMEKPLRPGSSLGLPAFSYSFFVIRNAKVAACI
Kind of test: Pro-heparanase (H60) activation in a cell-based assay. The conditions noted are these: inhibition of pro-heparanase activation in CHO cells; NI = no inhibition. The protocol: Pro-heparanase (H60) activation in a cell-based assay: Chinese hamster ovary (CHO) cells were grown in complete F12 medium supplemented with 10% fetal calf serum (FCS). […] The plates were incubated for 24 hours in a 37° C. humidified incubator with 5% CO2. […] The plates were further incubated for additional 4 hours. The pro-heparanase was allowed to internalize by the cells and further processed to generate the active 53 kDa heparanase. At the end of the incubation, the cells were lysed by three consecutive cycles of freezing and thawing in a −80° C. freezer and a 37° C. shaker.
The rigidified compounds described herein were tested for inhibition of pro-heparanase activation in the cell-based assay described above.

The target of test [2] is T2, vascular endothelial growth factor (VEGF) (Homo sapiens, UniProt P15692).
T2 sequence (P15692 27-191 isoform P15692-4): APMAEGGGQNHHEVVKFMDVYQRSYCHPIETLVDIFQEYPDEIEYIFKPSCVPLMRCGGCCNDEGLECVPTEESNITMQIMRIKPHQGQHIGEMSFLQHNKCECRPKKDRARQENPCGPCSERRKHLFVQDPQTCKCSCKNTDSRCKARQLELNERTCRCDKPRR
Kind of test: ELISA for determination of binding of VEGF to heparin. To be noted: for IC50: inhibition of VEGF binding to heparin, NI = no inhibition; for inhibition of VEGF binding to heparin: inhibition towards both growth factors. The protocol:
Enzyme-linked immunosorbent assay (ELISA) for determination of binding of vascular endothelial growth factor (VEGF) to heparin: 96-well microplates were coated for 2 hours. at 23-25° C. with 5 μg/ml heparin-albumin (Rimon Biotech) and blocked with 1% bovine serum albumin (BSA) in phosphate buffer (PBS) with 0.05% Tween and 0.01% thimerosal for 2 hours. VEGF was added to the plates at a concentration of 10 ng/ml and the plates were thereafter incubated for 45 minutes at 23-25° C. The amount of VEGF bound to heparin was detected using anti-VEGF monoclonal antibody (Sigma Cat. No. V4758) at a concentration of 0.26 μg/ml and secondary antibodies Sheep anti-mouse IgG linked to horseradish peroxidase (1:2000) using 3,3′,5,5′-tetramethylbenzidine (TMB, Pierce Cat. No. 34021) as a substrate for peroxidase. The plates were read at 450 nm with a reference wavelength of 630 nm using a VERSAmax plate reader. […] Percent inhibition was calculated as compared with a control pre-incubated with a solution of 1% DMSO and the results are presented in Table 3 below.
In general terms: In an ELISA, binding on a coated surface is turned into a signal by an enzyme label.

A further test concerns the target β-FGF (Homo sapiens, UniProt P09038). Kind of test: ELISA for determination of binding of β-FGF to heparin. The conditions noted are these: for IC50: inhibition of β-FGF binding to heparin, NI = no inhibition; for inhibition of β-FGF binding to heparin: inhibition towards both growth factors. As to the method: ELISA for determination of binding of β-FGF to heparin: 96-well microplates were coated for 2 hours at 23-25° C. with 5 μg/ml heparin-albumin (Rimon Biotech) and blocked with 1% BSA in PBS, with 0.05% Tween, and 0.01% thimerosal for 2 hours. β-FGF was added to the plates at a concentration of 10 ng/ml and plates were incubated for 45 minutes at 23-25° C. The amount of β-FGF bound to heparin was detected using anti-FGF monoclonal antibody (Sigma Cat. No. F6162) at a concentration of 2.5 ng/ml and secondary antibodies Sheep anti-mouse IgG linked to horseradish peroxidase (1:3000) TMB (Pierce Cat. No. 34021) was used as a substrate for peroxidase. The plates were read at 450 nm with a reference wavelength of 630 nm using a VERSAmax plate reader.

β-FGF, sequence (P09038 143-288): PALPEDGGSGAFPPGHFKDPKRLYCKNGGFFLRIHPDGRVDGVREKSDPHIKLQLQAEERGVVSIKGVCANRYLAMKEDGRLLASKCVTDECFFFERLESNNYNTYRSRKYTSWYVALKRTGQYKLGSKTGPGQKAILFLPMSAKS

For the compound `CCOC(=O)CCCN1C(=O)c2cc3oc(-c4ccc(Cl)cc4)cc3n2C1=S` [Compound 4, ethyl 4-[2-(4-chloro-phenyl)-6-oxo-4-thioxo-6H-1-oxa-3b,5-diaza-cyclopenta[a]pentalen-5-yl]-butyric acid ethyl ester], the IC50 in test [1] is 760 nM; in test [2] it was 130 nM; at β-FGF it was 60 nM.

Consider `CC(C)(CC(=O)On1nnc2ccccc2c1=O)CN1C(=O)c2cc3oc(-c4ccc(Cl)cc4)cc3n2C1=S` [Compound 12, 4-[2-(4-Chloro-phenyl)-6-oxo-4-thioxo-6H-1-oxa-3b,5-diaza-cyclopenta[a]pentalen-5-yl]-3,3-dimethyl-butyric acid 4-oxo-4H-benzo[d][1,2,3]triazin-3-yl ester], for which, in test [2], the IC50 came to 260 nM and the “inhibition of VEGF binding to heparin” value is listed as “sub-micromolar”. Also, on β-FGF, the IC50 was found to be 160 nM and the “inhibition of β-FGF binding to heparin” value is given as “sub-micromolar”.

For `Cc1c(N2C(=O)c3cc4oc(-c5ccc(Cl)cc5)cc4n3C2=S)c(=O)n(-c2ccccc2)n1C` [Compound 29, 2-(4-chloro-phenyl)-5-(1,5-dimethyl-3-oxo-2-phenyl-2,3-dihydro-1H-pyrazol-4-yl)-4-thioxo-4,5-dihydro-1-oxa-3b,5-diaza-cyclopenta[a]pentalen-6-one], the concentration for half-maximal inhibition (IC50) in test [1] was 370 nM. Besides, in test [2], the IC50 was 480 nM and the “inhibition of VEGF binding to heparin” value was “sub-micromolar”. On β-FGF, the IC50 came to 810 nM and the “inhibition of β-FGF binding to heparin” value is given as “sub-micromolar”.

`CCOP(=O)(CCCN1C(=O)c2cc3oc(-c4ccc(Cl)cc4)cc3n2C1=S)OCC` [Compound 27, {3-[2-(4-chloro-phenyl)-6-oxo-4-thioxo-6H-1-oxa-3b,5-diaza-cyclopenta[a]pentalen-5-yl]-propyl}-phosphonic acid diethyl ester]: the IC50 was found to be 260 nM in test [1] and 300 nM in test [2].

On to `CCOC(=O)CCCn1c(=S)sc2c(-c3ccc(-c4ccc([N+](=O)[O-])cc4)o3)snc21` [Compound 45, 4-{3-[5-(4-nitro-phenyl)-furan-2-yl]-5-thioxo-thiazolo[4,5-c]isothiazol-6-yl}-butyric acid ethyl ester], for which the IC50 in test [2] came to 15000 nM.

Take `CCN(CC)C(=O)CC(C)(C)CN1C(=O)c2cc3oc(-c4ccc(Cl)cc4)cc3n2C1=S` [Compound 13, 4-[2-(4-Chloro-phenyl)-6-oxo-4-thioxo-6H-1-oxa-3b,5-diaza-cyclopenta[a]pentalen-5-yl]-N,N-diethyl-3,3-dimethyl-butyramide]: the IC50 in test [1] amounted to 1400 nM. For the same compound, in test [2], the IC50 came out at 550 nM and the “inhibition of VEGF binding to heparin” value is “sub-micromolar”. Also, at β-FGF, the IC50 was found to be 220 nM and the “inhibition of β-FGF binding to heparin” value is listed as “sub-micromolar”.

For the compound `CON(C)C(=O)CCCN1C(=O)c2cc3oc(-c4ccc([N+](=O)[O-])cc4)cc3n2C1=S` [Compound 3, N-methoxy-N-methyl-4-[2-(4-nitro-phenyl)-6-oxo-4-thioxo-6H-1-oxa-3b,5-diaza-cyclopenta[a]pentalen-5-yl]-butyramide], in test [2], the IC50 was found to be 250 nM and the “inhibition of VEGF binding to heparin” value is reported as “sub-micromolar”. For the same compound, at β-FGF, the IC50 stood at 90 nM and the “inhibition of β-FGF binding to heparin” value is reported as “sub-micromolar”.

For the compound `CCOC(=O)CCCN1C(=O)c2cc3oc4ccc([N+](=O)[O-])cc4c3n2C1=S` [Compound 38, ethyl 4-[2,3-(3-nitro-phenyl)-6-oxo-4-thioxo-6H-1-oxa-3b,5-diaza-cyclopenta[a]pentalen-5-yl]-butyric acid ethyl ester], the IC50 in test [2] is 22500 nM; on β-FGF, 11500 nM.

As for `CCN(CC)C(=O)CC1(CN2C(=O)c3cc4oc(-c5ccc(Cl)cc5)cc4n3C2=S)CCCCC1` [Compound 24, 2-{1-[2-(4-Chloro-phenyl)-6-oxo-4-thioxo-6H-1-oxa-3b,5-diaza-cyclopenta[a]pentalen-5-ylmethyl]-cyclohexyl}-N,N-diethyl-acetamide], the IC50 in test [1] came to 1500 nM. Further, in test [2], the IC50 is 90 nM and the “inhibition of VEGF binding to heparin” value is on record as “sub-micromolar”. At β-FGF, the IC50 was found to be 150 nM and the “inhibition of β-FGF binding to heparin” value is reported as “sub-micromolar”.

For “4-[2-(4-Nitro-phenyl)-4,6-dioxo-6H-1-oxa-3b,5-diaza-cyclopenta[a]pentalen-5-yl]-butyric acid ethyl ester [Compound 30]”, the IC50 in test [1] was found to be 3900 nM; in test [2], 100 nM.

On to `CCOC(=O)CCCn1c(=S)sc2c(I)snc21` [Compound 44, ethyl 4-(3-iodo-5-thioxo-thiazolo[4,5-c]isothiazol-6-yl)-butyric acid ethyl ester], for which the IC50 in test [1] worked out at 7000 nM.

Take `COCCCN1C(=O)c2cc3oc(-c4ccc(Cl)cc4)cc3n2C1=S` [Compound 28, 2-(4-Chloro-phenyl)-5-(3-methoxy-propyl)-4-thioxo-4,5-dihydro-1-oxa-3b,5-diaza-cyclopenta[a]pentalen-6-one]: in test [1], the IC50 was found to be 6600 nM. In test [2], the IC50 was 170 nM and the “inhibition of VEGF binding to heparin” value was “sub-micromolar”. Besides, at β-FGF, the IC50 came to 20 nM and the “inhibition of β-FGF binding to heparin” value was “sub-micromolar”.

On to `CC(C)(CC(=O)NO)CN1C(=O)c2cc3oc(-c4ccc([N+](=O)[O-])cc4)cc3n2C1=S` [Compound 9, N-hydroxy-3,3-dimethyl-4-[2-(4-nitro-phenyl)-6-oxo-4-thioxo-6H-1-oxa-3b,5-diaza-cyclopenta[a]pentalen-5-yl]-butyramide], for which the IC50 in test [1] came to 170 nM.

Consider `CCOC(=O)CCCn1c(=S)sc2c(N)snc21` [Compound 43, ethyl 4-(3-amino-5-thioxo-thiazolo[4,5-c]isothiazol-6-yl)-butyric acid ethyl ester], for which the IC50 in test [1] worked out at 25000 nM.

`CCOC(=O)CCCN1C(=O)c2cc3oc(-c4ccc([N+](=O)[O-])cc4)cc3n2C1=S` [Compound 1, ethyl 4-[2-(4-nitro-phenyl)-6-oxo-4-thioxo-6H-1-oxa-3b,5-diaza-cyclopenta[a]pentalen-5-yl]-butyric acid ethyl ester]: the IC50 in test [2] turned out to be 130 nM; on β-FGF, 140 nM.

On to `CCOC(=O)CCCN1C(=O)c2cc3oc(Oc4ccc([N+](=O)[O-])cc4)cc3n2C1=S` [Compound 33, ethyl 4-[2-(4-nitro-phenoxy)-6-oxo-4-thioxo-6H-1-oxa-3b,5-diaza-cyclopenta[a]pentalen-5-yl]-butyric acid ethyl ester], for which the IC50 in test [1] worked out at 16000 nM.

Turning to `CC(C)(CC(=O)O)CN1C(=O)c2cc3oc(-c4ccc([N+](=O)[O-])cc4)cc3n2C1=S` [Compound 8, 3,3-Dimethyl-4-[2-(4-nitro-phenyl)-6-oxo-4-thioxo-6H-1-oxa-3b,5-diaza-cyclopenta[a]pentalen-5-yl]-butyric acid], the IC50 in test [1] is 780 nM.
